Eleven molecules from US20100022637A1, “IDENTIFICATION OF ANTI-CANCER COMPOUNDS AND COMPOUNDS FOR TREATING HUNTINGTON'S DISEASE AND METHODS OF TREATMENT THEREOF” (THE TRUSTEES OF COLUMBIA UNIVERSITY IN THE CITY OF NEW YORK, priority 2005, published 2010) can be followed below.

≈ marks a conversion by molar mass, not a printed value.

For assay [1], the system named is RKO-E6 cells. In words: Alamar Blue viability assay, RKO-E6. The format is cell-based, human. The following applies: for inhibition at 0.5 µg/mL: Homo sapiens, RKOE6, 0.5 μg/ml alone, read-out: growth inhibition by drug alone. The method, then: RKO colon carcinoma, human (ATCC, order # CRL-2577), RKO-E6 colon carcinoma transfected with HPV E6 inserted in pCMV.3 (ATCC, order # CRL-2578) were grown in MEM with 2 mM L-glutamine and Earle's BBS adjusted to contain 1.5 g/L NaHCO3, 0.1 mM non-essential amino acids and 1.0 mM sodium pyruvate, and supplemented with 10% fetal bovine serum, penicillin and streptomycin (pen/strep). Both cell lines were incubated at 37° C. in a humidified incubator containing 5% CO2.
The Alamar Blue assay incorporates a fluorimetric/colorimetric growth indicator that changes color in the response to chemical reduction by viable cells (Nociari 1998). Cells were seeded at a density of 3,000 cells (57 μl) per well in a 384-well black, clear-bottom plates using a syringe bulk dispenser (Zymark Sciclone ALH). Three microliters were removed from a compound daughter plate using a 384 fixed cannula head and added to the assay plate, making the final concentration 4 μg/ml. The plates were incubated for 24 h at 37° C. 10 μl of 40% Alamar Blue (Biosource Int., cat #DAL1100) solution in media was added to each well (1:10 dilution). The assay plates were incubated for 16h. Fluorescence intensity was determined using a Packard Fusion platereader with a 535 nm excitation filter and a 590 nm emission filter. The average fluorescence for the whole plate was used as a positive control. Average percentage inhibition for each well was determined using our freely available SLIMS software (Kelley et al., 2004).
The daughter plates for the 2-fold dilution series were prepared with a Zymark Sciclone ALH by diluting the replica daughter plates to obtain compound concentrations from 8 μg/ml-0.008 μg/ml (columns 8-18). Columns 1-7 were used as untreated control. RKO-E6 cells were seeded at the density of 3,000 per well in 55 μl, and 5 μl were added from the daughter plate. RKO cells were seeded at the density of 2,000 per well in 55 μl, and 5 μl were added from the daughter plate. The assay was incubated for 24 h at 37° C. 10% Alamar Blue was added to each well and the assay was incubated for 16 h (see above). Compounds for retesting were purchased from the manufacturers or from Sigma-Aldrich (see above). Stocks were prepared in DMSO at 4 mg/ml.
Each cell line (RKO, RKO-E6, HeLa and TC32) was treated with a dose combination matrix of doxorubicin and a selected hit compound. Each treatment was done in a triplicate in 384-well format. The average percent inhibition of cell proliferation, measured with Alamar Blue, was determined using the following formula: […]

Assay [2] concerns p53. As to the kind of experiment: Western blot of p53 (p21, MDM2) levels. The format is cell-based, human. The following applies: RKO-E6 cells; in words. The protocol: Protein content was quantified using a BioRad protein assay reagent (BioRad, cat #500-0006). Equal amounts of protein were resolved on SDS-polyacrylamide gels. Proteins were transferred onto a PVDF membrane, blocked with 5% milk, and incubated with the appropriate primary and secondary antibodies. […] To test for equivalent loading in each lane, blots were stripped, blocked and probed with an anti-eIF-4E antibody.

The subject of assay [3] is N548 mutant cells. In words: cells. The following applies: for maximal fold induction: 72 h, read-out: N548 Mut: Max, maximum rescue expressed as fold over DMSO treated N548 mutant cells; for EC50: read-out: EC50 based on activity in N548 mutant cells; for selectivity profile of cell death rescue in panel of htt expressing cell lines: N63, N548, FL htt cell lines, in words. The protocol:
Embryonic rat striatal neurons were conditionally immortalized by stably transfecting a temperature-sensitive SV40 large T-antigen (T-ag) to generate the ST14A cell line. ST14A cells proliferate at the permissive temperature (33° C.), but stop dividing at 39° C., as a result of T-ag degradation. […] As htt protein context modulates polyQ toxicity, testing these different length htt proteins could provide insight into the basis for context dependence.
ST14A Assay System: Calcein acetoxylmethyl ester (AM) (Molecular Probes, Eugene, Oreg.) is a non-fluorescent, membrane-permeable compound that is cleaved by intracellular esterases, which subsequently forms the anionic, fluorescent compound, calcein, that cannot permeate the cell membrane. […] A fluorescence viability assay, that is based on conversion of a non-fluorescent substrate (calcein AM) to a fluorescent product by nonspecific esterases in live cells, was employed to monitor cell death in wild type (wt) ST14A-Htt and mut ST14A-Htt cell lines. Cell death is indicated by a decrease in fluorescence. […] 3 μl of each compound was transferred from daughter plates to triplicate assay plates for a final assay concentration of 4 μg/ml in 0.1% DMSO (10 μM for NINDS compounds). Cells were incubated at 33° C. for 3 h to enhance attachment and then shifted to 39° C. (with 5% CO2). After 3 days (d), cells were washed 10 times with phosphate buffered saline (PBS) leaving 20 μl residual PBS per well, and 20 μl of 2 μg/ml calcein AM (Molecular probes) in PBS was added per well. […] The fluorescence intensity in each well was normalized to the median of each plate. The median normalized fluorescence of each triplicate assay wells was determined. A well with more than 50% increase in intensity above the median signal intensity was considered a “hit.”
Assay Development: An assay was developed for detecting mutant htt-induced cell death in ST14A cells in a 384-well plate format. A calcein AM-based method was used to detect cell viability, and optimized the cell number and time course for this method. […] A cell number titration was performed to determine the cell density at which calcein fluorescence was not saturated and the coefficient of variation (CV) was low (FIG. 14A-B). A low CV is critical for a high-throughput assay as it decreases noise and enhances sensitivity. […] Next, the kinetics of the fluorescence signal were determined.
Next, the serum concentrations that induce cell death in these cells were determined. Cells were seeded in decreasing serum (IFS) concentrations (5 to 0%), and cell viability was assayed after 3 d using the calcein AM assay (FIG. 14E).
A Z′ value of greater than 0 is required for a usable assay, with a maximum value of 1.0 for an ideal assay. For the assay, calcein fluorescence was used on the day of seeding to represent 100% rescue. The difference in calcein fluorescence signal on the day of seeding and after different number of days under serum deprivation was determined and used to calculate the Z′ factor. […] About 47,000 compounds were assayed in a 384-well plate format in triplicate to enhance the reliability of the primary screen.

In assay [4] the test system is PC12 expressing Q103 exon 1 htt. In words: PC12 HD model, Alamar Blue viability. The following applies: for EC50: Rattus norvegicus, PC-12, unit inferred; for PC12 rescue: percent increase in viability in compound treated cells above DMSO treated: — = no activity in the assay (footnote n.a.). The format is cell-based. The method, then: For enhanced stability the repeat portion consists of alternating CAG/CAA repeats. […] Mutant (mut) htt was induced by the ecdysone receptor agonist, tebufenozide.
For the PC12 assay, 7500 cells/well were plated in 384-well plates in 57 μl of PC12 medium with tebufenozide (1 μM). Compounds (3 μl) from daughter plates were added to the cells and incubated at 37° C. After 48 h, 20 μl of 40% Alamar Blue (Biosource, CA) in PC12 media was added per well and cells incubated for 12 h at 37° C. […] Fluorescence intensity was determined using a Packard Fusion plate reader with an excitation filter centered on 535 nm and an emission filter centered on 590 nm. Average percentage inhibition at each concentration was calculated.

Assay [5] has as its system microtubules in N548 mutant cells. In words: β-tubulin indirect immunofluorescence. Format: cell-based, rat. The following applies: colchicine 400 nM, revertin-22 4 μg/ml, 8 h. The protocol: Cells were grown on glass coverslips in 10% IFS-containing media, treated with compounds and fixed in acetone/methanol (1:1 vol/vol). β-tubulin was detected using a mouse monoclonal antibody (clone TUB2.1, Sigma-Aldrich) followed by a rhodamine-conjugated goat anti-mouse antibody (Jackson Laboratory; Bar Harbor, Me.). Cells were viewed under a fluorescent microscope (ex 530/em 595 nm).

Assay [6] has as its system RKO-E6 cells. As to the kind of experiment: Flow cytometry cell cycle distribution, RKO-E6. Format: cell-based, human. The following applies: 24 h, propidium iodide. The method, then:
RKO, RKO-E6 or HeLa cells were seeded in 20-cm dishes in 10 ml of growth medium. Cells were allowed to adhere and then treated with the selected compounds for 24 h. The treated cells were collected, washed 2× with PBS and counted. The cell pellet was re-suspended in 500 μl of ice cold PBS and 2-5 ml of cold 70% ethanol (−20° C.) were added. Cells were fixed for 1 h or overnight. 5-10 million cells were placed into a 15-ml conical tube and centrifuged at 1000 g. Cells were washed 2× with 1% calf serum in PBS. Cells were resuspended in 800 μl of 1% calf serum in PBS and 100 μl of Rnase (1 mg/ml) and 100 μl of propidium iodide (400 μg/ml) added. Cells were incubated at 37° C. for 30 min and then analyzed on flow cytometer.

`CC[C@@]1(O)C(=O)OCc2c1cc1n(c2=O)Cc2cc3ccccc3nc2-1` [camptothecin, S-(+)-camptothecin]: the inhibition at 0.5 µg/mL in assay [1] (24 h) is 20%. Besides, the “p53, p21, MDM2 levels” value in assay [2] is “caused p53 to accumulate”.

For the molecule `CCCCCCCCC(=O)N(Cc1ccco1)C(C)c1nc2ccccc2c(=O)n1-c1cc(C)ccc1C` (stereo not shown) [revertin-9], in assay [3] (Rattus norvegicus), the maximal fold induction stood at 2 and the EC50 was determined as 1 µg/mL. For the same molecule, in assay [4], the EC50 is 25 µg/mL (≈ 48.7 µM) and the “PC12 rescue: percent increase in viability in compound treated cells above DMSO treated” value (“PC12 rescue: percent increase” below) was 25%.

For `CC1CN(C(C)c2nc3ccccc3c(=O)n2-c2ccc(F)cc2)CCC1C(=O)C1CC1` (stereo not shown) [revertin-23], the “selectivity profile of cell death rescue in panel of htt expressing cell lines” value (from here on “selectivity profile of cell death rescue”) in assay [3] was “shared the selectivity profile with MTIs”. In assay [3] (Rattus norvegicus), the maximal fold induction came out at 2.5 and the EC50 amounted to 2 µg/mL. For the same molecule, the microtubule disruption result in assay [5] is listed as “disrupt microtubules”.

Turning to benzalkonium chloride, the “effect on doxorubicin's lethality in RKO-E6 cells” value in assay [1] (co-treatment with 0.5 μg/ml doxorubicin, 24 h, in words) was “selectively increased doxorubicin's lethality”. The “effect on camptothecin's lethality” value in assay [1] (co-treatment with camptothecin, in words) is recorded as “did not synergize with camptothecin”. Besides, in assay [1] (in the absence of doxorubicin), the induction of apoptosis entry is “did not induce apoptosis”. For the same molecule, the “p53, p21, MDM2 levels” value in assay [2] is “did not upregulate p53, p21, or caspase 3”. The “cell cycle effect in RKO-E6 cells” value in assay [6] is reported as “did not induce cell cycle arrest”.

In the case of `CCCCc1ccc(C(=O)N(CCC(=O)N2CCC(Cc3ccccc3)CC2)Cc2ccco2)cc1` [revertin-11], in assay [3] (Rattus norvegicus), the maximal fold induction came out at 2.5 and the EC50 worked out at 2 µg/mL. Also, in assay [4], the response was half-maximal at 30 µg/mL (≈ 61.6 µM) (EC50) and the “PC12 rescue: percent increase” value came out at 27%.

Regarding `CC(C)(C)CC(C)(C)c1ccc(OCCOCC[N+](C)(C)Cc2ccccc2)cc1` [benzethonium chloride], the “p53, p21, MDM2 levels” value in assay [2] was “did not upregulate p53, p21, or caspase 3”. Also, in assay [6], the “cell cycle effect in RKO-E6 cells” value is reported as “did not induce cell cycle arrest”.

In the case of `CCCc1ccc(CC2=C(O)C(=O)c3ccccc3C2=O)cc1` [revertin-8], in assay [3] (Rattus norvegicus), the maximal fold induction stood at 3 and the EC50 is 2 µg/mL. In addition, in assay [4], the EC50 was 2 µg/mL (≈ 6.53 µM) and the “PC12 rescue: percent increase” value is on record as 15%.

As for Colchicine [reference compound], the “N548 Mut: Max, maximum rescue expressed as fold over DMSO treated N548 mutant cells” value in assay [3] (0.5% IFS, 39° C., 3 d) was 2.5 fold. Also, in assay [3], the “selectivity profile of cell death rescue” value is listed as “rescued cell death in three htt expressing cell lines” and the EC50 was 40 nM. Moreover, in assay [5], the microtubule disruption entry is “depolymerize microtubules”.

With `COc1cc2c(cc1OC)C(C)N(C(=O)NCc1ccccc1)CC2` (stereo not shown) [revertin-22], the “selectivity profile of cell death rescue” value in assay [3] is reported as “shared the selectivity profile with MTIs”. In assay [3] (Rattus norvegicus), the maximal fold induction turned out to be 2.5 and the EC50 came to 1 µg/mL. In addition, the microtubule disruption result in assay [5] is given as “depolymerize microtubules”.

With `NNc1nnc(-c2ccccc2)c2ccccc12` [revertin-7], in assay [3] (Rattus norvegicus), the maximal fold induction is 2 and the EC50 is 1 µg/mL. Also, in assay [4], the EC50 came to 2 µg/mL (≈ 8.46 µM) and the “PC12 rescue: percent increase” value was 18%.

For the molecule `COc1cccc2c1C(=O)c1c(O)c3c(c(O)c1C2=O)C[C@@](O)(C(=O)CO)C[C@@H]3O[C@H]1C[C@H](N)[C@H](O)[C@H](C)O1` [doxorubicin], the “resistance of RKO-E6 cells compared to RKO cells” value in assay [1] was “two-fold to four-fold more resistant”. For the same molecule, the inhibition at 0.5 µg/mL in assay [1] (24 h) was 20%. Also, in assay [2], the “p53, p21, MDM2 levels” value is recorded as “caused p53 to accumulate”.
